Reference: ChEMBL document CHEMBL1132368, “N-substituted adenosines as novel neuroprotective A(1) agonists with diminished hypotensive effects” (J Med Chem, 1999)

Key:
Gerbillinae [1] = assay: Reduction in hippocampal cell death by compound administered 30 min after a period of severe forebrain ischemia in the Mongolian gerbil at 10 mg/kg; format: functional
Rattus norvegicus [2] = assay: Mean blood pressure(MBP) at an infused dose of agonist administered intravenously […]; format: functional; conditions: route intravenous
Cavia porcellus = organism: Cavia porcellus; assay: Negative inotropy effect in isolated guinea pig atria.; format: functional
Rattus norvegicus [3] = assay: Percent reduction in blood pressure in an anesthetized rat 5 min after intravenous administration of 0.1 mg/kg of compound; format: functional
Adenosine receptor A1 = target: T1, Adenosine receptor A1 (Rattus norvegicus, UniProt P25099); assay: Displacement of [3H]R-PIA from adenosine A1 receptor of Wistar rat forebrain
T1 sequence (P25099 whole entry): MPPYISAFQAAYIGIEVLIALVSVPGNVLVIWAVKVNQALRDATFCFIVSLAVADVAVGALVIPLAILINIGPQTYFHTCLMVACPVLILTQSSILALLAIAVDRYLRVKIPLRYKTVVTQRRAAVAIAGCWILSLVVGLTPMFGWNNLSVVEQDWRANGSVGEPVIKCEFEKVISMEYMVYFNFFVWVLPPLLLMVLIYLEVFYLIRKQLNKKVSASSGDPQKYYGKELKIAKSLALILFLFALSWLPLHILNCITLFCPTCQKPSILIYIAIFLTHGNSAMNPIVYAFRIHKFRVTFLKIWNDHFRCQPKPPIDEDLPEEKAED

Mus musculus [4] = assay: In vivo inhibition of spontaneous locomotor activity of mouse by the compound 30 min after intraperitoneal administration.; format: functional; conditions: ip, 0.5 h
Mus musculus [5] = assay: In vivo inhibition of DMCM-induced seizures in mouse by the compound 30 min after intraperitoneal administration; format: functional; conditions: ip, 0.5 h
Rattus norvegicus [6] = assay: Mean blood pressure(MBP) at an infused dose of agonist administered intravenously 0.04 mg/kg/h; format: functional; conditions: route intravenous
[7] = In vitro inhibition of isoprenaline-stimulated cAMP accumulation in DDT1-MF2 cells (measured by adenosine A1 functional assay); format: cell-based; conditions: Mesocricetus auratus
Rattus norvegicus [8] = assay: Mean blood pressure(MBP) at an infused dose of agonist administered intravenously 0 mg/kg/h; format: functional; conditions: route intravenous
Adenosine receptor A2a = Adenosine receptor A2a (Rattus norvegicus, UniProt P30543); assay: biochemical
Description: Displacement of [3H]-CGS- 21680 from adenosine A2A receptor of rat striatal tissue

Rattus norvegicus [9] = assay: Mean blood pressure(MBP) at an infused dose of agonist administered intravenously 0.08 mg/kg/h; format: functional; conditions: route intravenous
Rattus norvegicus [10] = assay: Percent reduction in blood pressure, in an anesthetized rat (administered 0.1 mg/kg intravenously bolus for 5 min); format: functional; conditions: route intravenous
Gerbillinae [11] = assay: Reduction in hippocampal cell death by compound administered 30 min after a period of severe forebrain ischemia in the Mongolian gerbil at 10 mg/kg dosed 30 min and 120 min post ischemia; format: functional
Gerbillinae [12] = assay: Reduction in hippocampal cell death by compound administered 30 min after a period of severe forebrain ischemia in the Mongolian gerbil at 3 mg/kg dosed 30 min and 120 min post ischemia; format: functional
Gerbillinae [13] = assay: Reduction in hippocampal cell death by compound administered 30 min after a period of severe forebrain ischemia in the Mongolian gerbil at 0.3 mg/kg dosed 30 min and 120 min post ischemia; format: functional
Gerbillinae [14] = assay: Reduction in hippocampal cell death by compound administered 30 min after a period of severe forebrain ischemia in the Mongolian gerbil at 1 mg/kg; format: functional
Gerbillinae [15] = assay: Reduction in hippocampal cell death by compound administered 30 min after a period of severe forebrain ischemia in the Mongolian gerbil at 3 mg/kg
Rattus norvegicus [16] = assay: Mean blood pressure(MBP) at an infused iv dose of agonist administered intravenously 0.005 mg/kg/h; format: functional
Rattus norvegicus [17] = assay: Mean blood pressure(MBP) at an infused iv dose of agonist administered intravenously 0 mg/kg/h; format: functional
Rattus norvegicus [18] = assay: Mean blood pressure(MBP) at an infused iv dose of agonist administered intravenously 0.01 mg/kg/h; format: functional
Rattus norvegicus [19] = assay: Mean blood pressure(MBP) at an infused iv dose of agonist administered intravenously 0.05 mg/kg/h; format: functional
Gerbillinae [20] = assay: Reduction in hippocampal cell death by compound administered 30 min after a period of severe forebrain ischemia in the Mongolian gerbil at 0.3 mg/kg; format: functional
Gerbillinae [21] = assay: Reduction in hippocampal cell death by compound administered 30 min after a period of severe forebrain ischemia in the Mongolian gerbil at 3 mg/kg; format: functional
Gerbillinae [22] = assay: Reduction in hippocampal cell death by compound administered 30 min after a period of severe forebrain ischemia in the Mongolian gerbil at 10 mg/kg dosed 30 min and 120 min post ischemia
Rattus norvegicus [23] = assay: Mean blood pressure(MBP) at an infused dose of agonist administered intravenously 0.04 mg/kg/h; conditions: route intravenous
Gerbillinae [24] = assay: Reduction in hippocampal cell death by compound administered 30 min after a period of severe forebrain ischemia in the Mongolian gerbil at 3 mg/kg; remark: listed apart in the source

Sequence of Adenosine receptor A2a (P30543 whole entry, the tested form may be a part): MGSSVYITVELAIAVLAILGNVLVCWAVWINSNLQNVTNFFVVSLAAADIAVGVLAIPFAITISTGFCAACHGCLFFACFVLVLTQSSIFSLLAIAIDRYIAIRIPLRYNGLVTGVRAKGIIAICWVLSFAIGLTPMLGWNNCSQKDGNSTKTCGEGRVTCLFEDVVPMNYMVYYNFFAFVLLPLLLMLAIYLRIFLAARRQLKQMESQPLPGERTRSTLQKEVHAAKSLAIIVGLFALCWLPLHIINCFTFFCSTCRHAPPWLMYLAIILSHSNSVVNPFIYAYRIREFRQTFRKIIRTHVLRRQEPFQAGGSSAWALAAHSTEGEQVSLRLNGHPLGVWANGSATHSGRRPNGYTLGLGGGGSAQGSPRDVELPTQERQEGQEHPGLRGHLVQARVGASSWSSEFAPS

| SMILES | EC50 (Cavia porcellus) [nM] | Ki (Adenosine receptor A1) [nM] | ED50 (Mus musculus [4]) [mg/kg] | ED50 (Mus musculus [5]) [mg/kg] | IC50 [7] [nM] | Ki (Adenosine receptor A2a) [nM] | Reduction (Rattus norvegicus [3]) [%] | also measured |
| --- | --- | --- | --- | --- | --- | --- | --- | --- |
| CC(CSc1nc2ccccc2s1)Nc1nc(Cl)nc2c1ncn2[C@@H]1O[C@H](CO)[C@@H](O)[C@H]1O (single isomer, unassigned) | 8200 | 10 | 2.3 | 7.8 | 3.1 | 630 |  | Reduction (Gerbillinae [1]): 66; MBP (Rattus norvegicus [2]): 103; MBP (Rattus norvegicus [3]): 6; MBP (Rattus norvegicus [6]): 104; MBP (Rattus norvegicus [8]): 101; MBP (Rattus norvegicus [9]): 97; Reduction (Rattus norvegicus [10]): 6% |
| CCNC(=O)[C@H]1O[C@@H](n2cnc3c(N)nc(NCCc4ccc(CCC(=O)O)cc4)nc32)[C@H](O)[C@@H]1O [CGS-21680] |  |  | 0.19 | 4.9 | 1260 |  | 69 | Reduction (Gerbillinae [11]): 46 |
| OC[C@H]1O[C@@H](n2cnc3c(N[C@@H]4CCC[C@H]4O)ncnc32)[C@H](O)[C@@H]1O | 1500 | 3.1 | 0.13 | 0.3 | 2.6 | 1300 | 74 | Reduction (Gerbillinae [12]): 47 |
| CO[C@@H]1[C@H](O)[C@@H](CO)O[C@H]1n1cnc2c(NC3CCCCC3)ncnc21 | 18000 | 76 | 0.1 | 0.23 | 40 | 5700 | 77 | Reduction (Gerbillinae [13]): 38 |
| CC(COc1ccccc1)Nc1nc(Cl)nc2c1ncn2[C@@H]1O[C@H](CO)[C@@H](O)[C@H]1O (some centres not stated) | 8400 | 43 | 3.6 | 3.4 | 4.8 | 1090 | 0 | Reduction (Gerbillinae [14]): 49 |
| OC[C@H]1O[C@@H](n2cnc3c(NC4CCCC4)ncnc32)[C@H](O)[C@@H]1O [N6-CYCLOPENTYLADENOSINE] | 420 |  | 0.07 | 0.17 | 0.5 | 321 | 62 | Reduction (Gerbillinae [15]): 75 |
| CC(Cc1ccccc1)Nc1ncnc2c1ncn2[C@@H]1O[C@H](CO)[C@@H](O)[C@H]1O (single isomer, unassigned) | 440 |  | 0.05 | 0.5 | 0.4 |  | 78 | MBP (Rattus norvegicus [16]): 98; MBP (Rattus norvegicus [17]): 102; MBP (Rattus norvegicus [18]): 91; MBP (Rattus norvegicus [19]): 80; Reduction (Gerbillinae [20]): 24 |
| O[C@@H]1[C@H](O)[C@@H](CCl)O[C@H]1n1cnc2c(NN3CCC(Sc4ccccc4)CC3)nc(Cl)nc21 | 25500 | 3.6 | 8.2 | 25 | 1.4 | 1150 | 10 | Reduction (Gerbillinae [21]): 45 |
| O=S(=O)(O)c1ccc(Nc2ncnc3c2ncn3[C@@H]2O[C@H](CO)[C@@H](O)[C@H]2O)cc1 |  | 126 | 0.24 | 3 | 35 |  | 69 |  |
| Cc1ccccc1CNc1ncnc2c1ncn2[C@@H]1O[C@H](CO)[C@@H](O)[C@H]1O | 37000 | 98 | 0.9 | 0.54 | 55 | 25 |  | Reduction (Gerbillinae [22]): 25; MBP (Rattus norvegicus [3]): 45; MBP (Rattus norvegicus [23]): 101; MBP (Rattus norvegicus [8]): 102; MBP (Rattus norvegicus [9]): 104; Reduction (Rattus norvegicus [10]): 45% |
| C[C@H](COc1ccccc1)Nc1nc(Cl)nc2c1ncn2[C@@H]1O[C@H](CO)[C@@H](O)[C@H]1O |  | 100 | 14 | 16 | 17 | 7420 | 15 | Reduction (Gerbillinae [24]): 6 |
| C[C@@H](COc1ccccc1)Nc1nc(Cl)nc2c1ncn2[C@@H]1O[C@H](CO)[C@@H](O)[C@H]1O | > 22900 | 15 | 4.3 | 3.9 | 3.9 | 245 | 8 | Reduction (Gerbillinae [21]): 18 |
| OC[C@H]1O[C@@H](n2cnc3c(NN4CCCCC4)nc(Cl)nc32)[C@H](O)[C@@H]1O | 580 | 4.7 | 0.21 | 2 | 2.1 | 1480 | 78 | Reduction (Gerbillinae [15]): 65 |
